System: 935938-334-R-J1-PDC spheroids with HUVEC/MSC, viability
Assay: Anticancer human tumor 935938-334-R-J1-PDC patient-derived small intestine adenocarcinoma cell line growth inhibition [PI3K]
Details: for IC50: curve of first compound; for viability, T/C: stronger effect = lower value
From the text: Combinatorial screen of targeted agents with the PI3K inhibitors inavolisib, alpelisib, duvelisib, and copanlisib in multi-cell type tumor spheroids
A high-throughput screen of multi-cell type tumor spheroids was designed to identify active combinations of targeted small molecules and PI3K pathway inhibitors. Complex spheroids include a stromal component modeled by human endothelial cells (HUVEC) and fibroblasts modeled by human mesenchymal stem cells (MSCs). The concentration ranges selected for each drug and investigational agent were based upon clinically achievable concentrations if the clinical Cmax of the agent was known.
Compounds. The drugs and investigational agents: inavolisib (NSC800729), alpelisib (NSC765974), duvelisib (NSC772469), copanlisib (NSC816437), ipatasertib (NSC767898), afuresertib (NSC778305), talazoparib (NSC767125), sapanisertib (NSC764658), selumetinib (NSC741078), tovorafenib (DAY101, NSC766906), vemurafenib (NSC761431), ravoxertinib (NSC781343), sotorasib (NSC818433), MRTX1133 (NSC 836407), abemaciclib (NSC 768073), palbociclib (NSC758247), venetoclax (NSC 766270), SY5609 (NSC837396), enzalutamide (NSC755605), and darolutamide (NSC825331), were obtained from the National Cancer Institute (NCI) Developmental Therapeutics Program Chemical Repository. The FDA-approved anticancer drug set is available from the NCI Developmental Therapeutics Program. […] The stock solutions were prepared in dimethyl sulfoxide (DMSO, Sigma-Aldrich, St. Louis, MO, cat. D2650) at 800-fold the tested concentration and stored at -70 degrees C prior to their use. All drugs and investigational agents were tested over a range starting from a high concentration at or near the clinical Cmax and decreasing in half-log increments. If the clinical Cmax for an agent had not been determined, the highest concentration tested was 10 microM.
Cell Culture. All cells were maintained in an incubator at 37 degrees C and 5% CO2 with 95% humidity. The PDC lines were cultured according to standard operating procedures established by the NCI PDMR (https://pdmr.cancer.gov/sops/default.htm). All PDCs were thawed and cultured in Matrigel-coated flasks prepared with a working solution of 1X Ham's F-12 nutrient mix, without supplementation (Invitrogen, Waltham, MA, cat. 11765054), 100 U/mL penicillin-streptomycin (Invitrogen, cat. 15140122), and 2.5% Matrigel (Corning Inc., Corning, NY, cat. 354248) for the first three passages. The 354836-022-R-J1-PDC, 475296-252-R-J1-PDC, and 997726-040-R-J2-PDC lines were cultured in 6A media, which includes advanced DMEM/F-12 (Thermo Fisher Scientific, cat. 12634028), 10 mM HEPES (Thermo Fisher Scientific, cat. 15630080), 1X GlutaMAX supplement (Thermo Fisher Scientific, cat. 35050061), 0.1 mg/mL primocin (InvivoGen, San Diego, CA, cat. ant-pm-2), 10% defined fetal bovine serum, heat inactivated (HyClone Laboratories Inc., Logan, UT, cat. SH30070.03HI), 50% L-WRN conditioned media (ATCC, cat. CRL-3276), 1.25 mM N-Acetyl-L-cysteine (Sigma-Aldrich, cat. A9165), 10 mM nicotinamide (Sigma-Aldrich, cat. N0636), 1X B-27 supplement (Thermo Fisher Scientific, cat. 17504044), 1X N-2 supplement (Thermo Fisher Scientific, cat. 17502048), and 10 microM Y-27632 dihydrochloride (Tocris Bioscience, Bristol, United Kingdom, cat. 1254). The 624824-186-R-J2-PDC line was cultured in 6C/Colon 1B media, which includes all 6A media components plus 50 ng/mL human EGF recombinant protein (Thermo Fisher Scientific, cat. PHG0311). […]

[1] = second compound 0.00316 µM, first compound 0.0316 µM
[2] = second compound 0.00316 µM, first compound 0.1 µM
[3] = second compound 0.00316 µM, first compound 0.316 µM
[4] = second compound 0.00316 µM, first compound 1 µM
[5] = second compound 0.00316 µM, first compound 3.16 µM
[6] = second compound 0.00316 µM, first compound 10 µM
[7] = second compound 0.01 µM, first compound 0.0316 µM
[8] = second compound 0.01 µM, first compound 0.1 µM
[9] = second compound 0.01 µM, first compound 0.316 µM
[10] = second compound 0.01 µM, first compound 1 µM
[11] = second compound 0.01 µM, first compound 3.16 µM
[12] = second compound 0.01 µM, first compound 10 µM
[13] = second compound 0.0316 µM, first compound 0.0316 µM
[14] = second compound 0.0316 µM, first compound 0.1 µM
[15] = second compound 0.0316 µM, first compound 0.316 µM
[16] = second compound 0.0316 µM, first compound 1 µM
[17] = second compound 0.0316 µM, first compound 3.16 µM
[18] = second compound 0.0316 µM, first compound 10 µM
[19] = second compound 0.1 µM, first compound 0.0316 µM
[20] = second compound 0.1 µM, first compound 0.1 µM
[21] = second compound 0.1 µM, first compound 0.316 µM
[22] = second compound 0.1 µM, first compound 1 µM
[23] = second compound 0.1 µM, first compound 3.16 µM
[24] = second compound 0.1 µM, first compound 10 µM
[25] = second compound 0.316 µM, first compound 0.0316 µM
[26] = second compound 0.316 µM, first compound 0.1 µM
[27] = second compound 0.316 µM, first compound 0.316 µM
[28] = second compound 0.316 µM, first compound 1 µM
[29] = second compound 0.316 µM, first compound 3.16 µM
[30] = second compound 0.316 µM, first compound 10 µM
[31] = second compound 1 µM, first compound 0.0316 µM
[32] = second compound 1 µM, first compound 0.1 µM
[33] = second compound 1 µM, first compound 0.316 µM
[34] = second compound 1 µM, first compound 1 µM
[35] = second compound 1 µM, first compound 3.16 µM
[36] = second compound 1 µM, first compound 10 µM
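Further: compound exposure lasted seven days before viability was read.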
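Wherever viability, T/C is given: percent of vehicle DMSO treated spheroid viability so 100% = untreated.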

CC(C)NCC(C(=O)N1CCN(c2ncnc3c2C(C)CC3O)CC1)c1ccc(Cl)cc1 (stereo unspecified) + CC(Nc1ccc2c(c1)OCCn1cc(N3C(=O)OCC3C(F)F)nc1-2)C(N)=O
IC50 (second compound 0.00316 µM): 1690 nM
IC50 (second compound 0.01 µM): 3320 nM
IC50 (second compound 0.0316 µM): 811 nM
IC50 (second compound 0.1 µM): 651 nM
IC50 (second compound 0.316 µM): 724 nM
IC50 (second compound 1 µM): 328 nM
viability, T/C [1]: 76.6%
viability, T/C [2]: 96.7%
viability, T/C [3]: 77.9%
viability, T/C [4]: 58%
viability, T/C [5]: 41.5%
viability, T/C [6]: 36.1%
viability, T/C [7]: 47.5%
viability, T/C [8]: 75.7%
viability, T/C [9]: 85%
viability, T/C [10]: 65.4%
viability, T/C [11]: 51.1%
viability, T/C [12]: 28.6%
viability, T/C [13]: 53.1%
viability, T/C [14]: 76.5%
viability, T/C [15]: 65.5%
viability, T/C [16]: 46.5%
viability, T/C [17]: 35.3%
viability, T/C [18]: 30%
viability, T/C [19]: 94.9%
viability, T/C [20]: 84.1%
viability, T/C [21]: 56.1%
viability, T/C [22]: 44%
viability, T/C [23]: 44%
viability, T/C [24]: 28.3%
viability, T/C [25]: 55.5%
viability, T/C [26]: 75.7%
viability, T/C [27]: 68.3%
viability, T/C [28]: 43.6%
viability, T/C [29]: 23.4%
viability, T/C [30]: 24.8%
viability, T/C [31]: 35.1%
viability, T/C [32]: 52.9%
viability, T/C [33]: 63.5%
viability, T/C [34]: 34.1%
viability, T/C [35]: 19.8%
viability, T/C [36]: 28.6%

CCN1CCN(Cc2ccc(Nc3ncc(F)c(-c4cc(F)c5nc(C)n(C(C)C)c5c4)n3)nc2)CC1 + CC(Nc1ccc2c(c1)OCCn1cc(N3C(=O)OCC3C(F)F)nc1-2)C(N)=O
IC50 (second compound 0.00316 µM): 126 nM
IC50 (second compound 0.01 µM): 168 nM
IC50 (second compound 0.0316 µM): 46.3 nM
IC50 (second compound 0.1 µM): < 3.16 nM
IC50 (second compound 0.316 µM): 32.3 nM
IC50 (second compound 1 µM): < 3.16 nM
viability, T/C (second compound 0.00316 µM, first compound 0.00316 µM): 60.1%
viability, T/C (second compound 0.00316 µM, first compound 0.01 µM): 67.3%
viability, T/C [1]: 66%
viability, T/C [2]: 49.8%
viability, T/C [3]: 37.6%
viability, T/C [4]: 18.1%
viability, T/C (second compound 0.01 µM, first compound 0.00316 µM): 59.6%
viability, T/C (second compound 0.01 µM, first compound 0.01 µM): 58%
viability, T/C [7]: 65%
viability, T/C [8]: 64.4%
viability, T/C [9]: 35.6%
viability, T/C [10]: 15.5%
viability, T/C (second compound 0.0316 µM, first compound 0.00316 µM): 83.7%
viability, T/C (second compound 0.0316 µM, first compound 0.01 µM): 68.3%
viability, T/C [13]: 56.8%
viability, T/C [14]: 39%
viability, T/C [15]: 28.8%
viability, T/C [16]: 19.6%
viability, T/C (second compound 0.1 µM, first compound 0.00316 µM): 42.6%
viability, T/C (second compound 0.1 µM, first compound 0.01 µM): 55.9%
viability, T/C [19]: 51.3%
viability, T/C [20]: 45.1%
viability, T/C [21]: 28.9%
viability, T/C [22]: 16.2%
viability, T/C (second compound 0.316 µM, first compound 0.00316 µM): 43%
viability, T/C (second compound 0.316 µM, first compound 0.01 µM): 51.5%
viability, T/C [25]: 56%
viability, T/C [26]: 26.8%
viability, T/C [27]: 23.3%
viability, T/C [28]: 14.7%
viability, T/C (second compound 1 µM, first compound 0.00316 µM): 44.3%
viability, T/C (second compound 1 µM, first compound 0.01 µM): 38%
viability, T/C [31]: 50.3%
viability, T/C [32]: 25.4%
viability, T/C [33]: 22.3%
viability, T/C [34]: 20.6%

Cn1ncc(Cl)c1-c1cc(C(=O)NC(CN)Cc2cccc(F)c2)sc1Cl (stereo unspecified) + CC(Nc1ccc2c(c1)OCCn1cc(N3C(=O)OCC3C(F)F)nc1-2)C(N)=O
IC50 (second compound 0.00316 µM): > 10000 nM
IC50 (second compound 0.01 µM): > 10000 nM
IC50 (second compound 0.0316 µM): > 10000 nM
IC50 (second compound 0.1 µM): 761 nM
IC50 (second compound 0.316 µM): 261 nM
IC50 (second compound 1 µM): < 31.6 nM
viability, T/C [1]: 107%
viability, T/C [2]: 69%
viability, T/C [3]: 60.8%
viability, T/C [4]: 57.9%
viability, T/C [5]: 56.5%
viability, T/C [6]: 116%
viability, T/C [7]: 104%
viability, T/C [8]: 79.4%
viability, T/C [9]: 53%
viability, T/C [10]: 72.8%
viability, T/C [11]: 40.9%
viability, T/C [12]: 99.8%
viability, T/C [13]: 102%
viability, T/C [14]: 73.2%
viability, T/C [15]: 56.7%
viability, T/C [16]: 49.2%
viability, T/C [17]: 35.9%
viability, T/C [18]: 86%
viability, T/C [19]: 80.6%
viability, T/C [20]: 74.7%
viability, T/C [21]: 55.5%
viability, T/C [22]: 39.1%
viability, T/C [23]: 32.5%
viability, T/C [24]: 72.8%
viability, T/C [25]: 70.9%
viability, T/C [26]: 65.5%
viability, T/C [27]: 47.1%
viability, T/C [28]: 41%
viability, T/C [29]: 28.1%
viability, T/C [30]: 55.7%
viability, T/C [31]: 56.7%
viability, T/C [32]: 51.1%
viability, T/C [33]: 43.3%
viability, T/C [34]: 31.4%
viability, T/C [35]: 39%
viability, T/C [36]: 72.4%
